Reference: the NIST ThermoML archive (doi:10.1021/je800497u)
± gives the expanded uncertainty stated by the source.

Assays:
[1] = xn = mol fraction of the nth substance listed; settings: 101 kPa, Liquid
[2] = 101 kPa, Liquid

CCCO [propan-1-ol] + CCCCCO
[1], x1 = 1
Settings	mass density [kg/m3]	viscosity [mPa·s]
293.15 K	803.5 ± 0.7	2.272 ± 0.052
298.15 K	799.6 ± 0.7	1.966 ± 0.045

CCCCCCCCCCCO [1-undecanol] + CCCO
[1]
Settings	mass density, 293.15 K [kg/m3]	mass density, 298.15 K [kg/m3]	viscosity, 293.15 K [mPa·s]	viscosity, 298.15 K [mPa·s]
x2 = 0	832.5 ± 0.6	829 ± 0.6	17.18 ± 0.3	14.02 ± 0.25
x2 = 0.1283	830.7 ± 0.6	827.3 ± 0.6	15.08 ± 0.27	12.37 ± 0.22
x2 = 0.2079	829.6 ± 0.6	826.2 ± 0.6	13.44 ± 0.24	11.11 ± 0.2
x2 = 0.3145	827.9 ± 0.6	824.4 ± 0.6	11.56 ± 0.21	9.558 ± 0.18
x2 = 0.4057	826.1 ± 0.6	822.6 ± 0.6	10.06 ± 0.19	8.394 ± 0.16
x2 = 0.5075	824 ± 0.6	820.5 ± 0.6	8.321 ± 0.16	6.998 ± 0.14
x2 = 0.6096	821.3 ± 0.6	817.7 ± 0.6	6.814 ± 0.14	5.804 ± 0.12
x2 = 0.6937	818.7 ± 0.6	815.1 ± 0.6	5.634 ± 0.12	4.823 ± 0.11
x2 = 0.7922	815 ± 0.6	811.4 ± 0.6	4.399 ± 0.096	3.808 ± 0.084
x2 = 0.8907	810.3 ± 0.6	806.5 ± 0.6	3.274 ± 0.073	2.857 ± 0.064

CCCCCCCO [heptan-1-ol] + CCCCCCCCCO
[1], x1 = 1
Settings	mass density [kg/m3]	viscosity [mPa·s]
293.15 K	822.2 ± 0.6	7.104 ± 0.14
298.15 K	818.7 ± 0.6	5.993 ± 0.12

CCCCCCCCCCCO [1-undecanol] + CCCCCO
[1]
Settings	mass density, 293.15 K [kg/m3]	mass density, 298.15 K [kg/m3]	viscosity, 293.15 K [mPa·s]	viscosity, 298.15 K [mPa·s]
x2 = 0	832.5 ± 0.6	829 ± 0.6	17.18 ± 0.3	14.02 ± 0.25
x2 = 0.1218	830.3 ± 0.6	826.9 ± 0.6	15.92 ± 0.28	13.04 ± 0.23
x2 = 0.2312	829.1 ± 0.6	825.7 ± 0.6	13.84 ± 0.25	11.4 ± 0.21
x2 = 0.3167	828 ± 0.6	824.6 ± 0.6	12.28 ± 0.22	10.14 ± 0.19
x2 = 0.4002	826.9 ± 0.6	823.5 ± 0.6	11.17 ± 0.2	9.277 ± 0.18
x2 = 0.5076	825.2 ± 0.6	821.8 ± 0.6	9.516 ± 0.18	7.956 ± 0.15
x2 = 0.6003	823.7 ± 0.6	820.3 ± 0.6	8.205 ± 0.16	6.902 ± 0.14
x2 = 0.6977	822 ± 0.6	818.5 ± 0.6	6.943 ± 0.14	5.846 ± 0.12
x2 = 0.7982	819.8 ± 0.6	816.3 ± 0.6	5.804 ± 0.12	4.908 ± 0.11
x2 = 0.8954	817.5 ± 0.6	813.9 ± 0.6	4.87 ± 0.11	4.16 ± 0.091

CCCCCCCCCO [nonan-1-ol]
[2]
Settings	mass density [kg/m3]	viscosity [mPa·s]
293.15 K	827.9 ± 0.7	11.68 ± 0.22
298.15 K	824.4 ± 0.7	9.671 ± 0.18

CCCCCCCO [heptan-1-ol] + CCCCCO
[1]
Settings	mass density, 293.15 K [kg/m3]	mass density, 298.15 K [kg/m3]	viscosity, 293.15 K [mPa·s]	viscosity, 298.15 K [mPa·s]
x2 = 0	822.2 ± 0.6	818.7 ± 0.6	7.104 ± 0.14	5.993 ± 0.12
x2 = 0.123	821.4 ± 0.6	818 ± 0.6	6.696 ± 0.14	5.692 ± 0.12
x2 = 0.2117	820.8 ± 0.6	817.4 ± 0.6	6.374 ± 0.13	5.408 ± 0.12
x2 = 0.3131	820.2 ± 0.6	816.7 ± 0.6	6.079 ± 0.12	5.158 ± 0.11
x2 = 0.4177	819.4 ± 0.6	815.9 ± 0.6	5.758 ± 0.12	4.899 ± 0.11
x2 = 0.5088	818.8 ± 0.6	815.3 ± 0.6	5.421 ± 0.12	4.652 ± 0.1
x2 = 0.5897	818.2 ± 0.6	814.7 ± 0.6	5.177 ± 0.11	4.431 ± 0.097
x2 = 0.6996	817.3 ± 0.6	813.8 ± 0.6	4.887 ± 0.11	4.189 ± 0.092
x2 = 0.7885	816.5 ± 0.6	812.9 ± 0.6	4.651 ± 0.1	3.997 ± 0.088
x2 = 0.8909	815.6 ± 0.6	812 ± 0.6	4.287 ± 0.094	3.717 ± 0.082

CCCCCCCCCCCO [1-undecanol] + CCCCCCCCCO
[1]
Settings	mass density, 293.15 K [kg/m3]	mass density, 298.15 K [kg/m3]	viscosity, 293.15 K [mPa·s]	viscosity, 298.15 K [mPa·s]
x2 = 0	832.5 ± 0.6	829 ± 0.6	17.18 ± 0.3	14.02 ± 0.25
x2 = 0.1177	831.4 ± 0.6	827.9 ± 0.6	16.86 ± 0.3	13.84 ± 0.25
x2 = 0.248	830.8 ± 0.6	827.4 ± 0.6	16.21 ± 0.28	13.3 ± 0.24
x2 = 0.3116	830.5 ± 0.6	827.1 ± 0.6	15.57 ± 0.28	12.72 ± 0.23
x2 = 0.4007	830.2 ± 0.6	826.8 ± 0.6	15.49 ± 0.28	12.68 ± 0.23
x2 = 0.5017	829.8 ± 0.6	826.4 ± 0.6	14.66 ± 0.26	12.03 ± 0.22
x2 = 0.6004	829.4 ± 0.6	826 ± 0.7	13.83 ± 0.25	11.33 ± 0.21
x2 = 0.6921	829 ± 0.7	825.6 ± 0.7	13.5 ± 0.24	11.12 ± 0.21
x2 = 0.7943	828.6 ± 0.7	825.2 ± 0.7	12.79 ± 0.23	10.55 ± 0.2
x2 = 0.8915	828.1 ± 0.7	824.7 ± 0.7	12.06 ± 0.22	9.982 ± 0.19

CCCO [propan-1-ol] + CCCCCCCO
[1], x1 = 1
Settings	mass density [kg/m3]	viscosity [mPa·s]
293.15 K	803.5 ± 0.7	2.272 ± 0.052
298.15 K	799.6 ± 0.7	1.966 ± 0.045

CCCCCCCCCO [nonan-1-ol] + CCCCCO
[1]
Settings	mass density, 293.15 K [kg/m3]	mass density, 298.15 K [kg/m3]	viscosity, 293.15 K [mPa·s]	viscosity, 298.15 K [mPa·s]
x2 = 0	827.9 ± 0.7	824.4 ± 0.7	11.68 ± 0.22	9.671 ± 0.18
x2 = 0.1155	826.6 ± 0.7	823.1 ± 0.7	10.72 ± 0.2	8.891 ± 0.17
x2 = 0.2155	825.6 ± 0.7	822.2 ± 0.7	9.71 ± 0.18	8.083 ± 0.16
x2 = 0.3161	824.5 ± 0.6	821.1 ± 0.7	8.734 ± 0.17	7.313 ± 0.15
x2 = 0.4052	823.6 ± 0.6	820.1 ± 0.7	8.071 ± 0.16	6.815 ± 0.14
x2 = 0.5066	822.4 ± 0.6	818.9 ± 0.6	7.27 ± 0.14	6.128 ± 0.13
x2 = 0.6079	821 ± 0.6	817.5 ± 0.6	6.582 ± 0.13	5.55 ± 0.12
x2 = 0.7036	819.6 ± 0.6	816.1 ± 0.6	5.898 ± 0.12	5.017 ± 0.11
x2 = 0.7935	818.2 ± 0.6	814.7 ± 0.6	5.192 ± 0.11	4.473 ± 0.098
x2 = 0.8913	816.6 ± 0.6	813 ± 0.6	4.631 ± 0.1	3.976 ± 0.088
